Experimental data published in publication PMC4631180 (British Journal of Clinical Pharmacology, 2015).
Entries after “also recorded” stand apart in the source; their conditions may differ. Counter-ions that a name gives are not always drawn. Like-named read-outs stand apart in the source and are kept apart here. Marks after values point to notes of the source that are not given here.

What was measured:
[1] = type: in vivo, human; conditions: for Total AUC: extrapolated to infinity; for half-life: both, human, plasma, oral, t½; for Cmax ratio (Day2) / (Day1), arithmetic mean / Cmax ratio (Day2) / (Day1), geometric mean / Cmax ratio (Day6) / (Day1), arithmetic mean / Cmax ratio (Day6) / (Day1), geometric mean / Total AUC ratio (Day2) / (Day1), arithmetic mean / Total AUC ratio (Day2) / (Day1), geometric mean / Total AUC ratio (Day6) / (Day1), arithmetic mean / Total AUC ratio (Day6) / (Day1), geometric mean / Truncated AUC ratio (Day2) / (Day1), arithmetic mean / Truncated AUC ratio (Day2) / (Day1), geometric mean / Truncated AUC ratio (Day6) / (Day1), arithmetic mean / Truncated AUC ratio (Day6) / (Day1), geometric mean: favipiravir co-administration vs control; for Truncated AUC: 0–12 h
[2] = system: acetaminophen glucuronide formation (pooled human hepatic S9); experiment: Inhibition of acetaminophen glucuronide formation in pooled human hepatic S9; type: in vitro ADME; conditions: pooled human hepatic S9, acetaminophen 2 mM; favipiravir up to 3000 µM, T-705M1 3–300 µM
[3] = system: acetaminophen sulfate formation (sulfation); experiment: Inhibition of acetaminophen sulfate formation in pooled human hepatic S9; type: in vitro ADME; conditions: both, pooled human hepatic S9, probe acetaminophen (2 mM)
[4] = type: in vivo, human
[5] = Day 2, + acute favipiravir, mean (± SE), n = 28
[6] = Day 6, + extended favipiravir, mean (± SE), n = 28
[7] = 650 mg, Day 1, acetaminophen alone (control), mean (± SE), n = 28
[8] = Day 1, acetaminophen alone (control), mean (± SE), n = 28

Structure (SMILES)	Total AUC [1, 5]	Total AUC [1, 6]	half-life [1, 7]	half-life [1, 5]	Cmax ratio (Day2) / (Day1), arithmetic mean [1]	Cmax ratio (Day2) / (Day1), geometric mean [1]	Cmax ratio (Day6) / (Day1), arithmetic mean [1]	Cmax ratio (Day6) / (Day1), geometric mean [1]	Total AUC ratio (Day2) / (Day1), arithmetic mean [1]	Total AUC ratio (Day2) / (Day1), geometric mean [1]	Total AUC ratio (Day6) / (Day1), arithmetic mean [1]	Total AUC ratio (Day6) / (Day1), geometric mean [1]	Truncated AUC ratio (Day2) / (Day1), arithmetic mean [1]	Truncated AUC ratio (Day2) / (Day1), geometric mean [1]	Truncated AUC ratio (Day6) / (Day1), arithmetic mean [1]	Truncated AUC ratio (Day6) / (Day1), geometric mean [1]	Inhibition of acetaminophen glucuronide formation [2]	other results
CC(=O)Nc1ccc(O[C@@H]2O[C@H](C(=O)O)[C@@H](O)[C@H](O)[C@H]2O)cc1 [Acetaminophen glucuronide]	99.3 (± 5.1) µg ml^–1 h	109.0 (± 7.1) µg ml^–1 h	3.3 h	3.5 h	1.19*	1.18	1.26*	1.22	1.23*	1.22	1.35*	1.32	1.23*	1.21	1.34*	1.31	–	–
NC(=O)c1nc(F)c(=O)[nH]c1O [T‐705M1]	–	–	–	–	–	–	–	–	–	–	–	–	–	–	–	–	did not inhibit; also recorded: no effect	–
NC(=O)c1nc(F)c[nH]c1=O [Favipiravir, reference compound]	–	–	–	–	–	–	–	–	–	–	–	–	–	–	–	–	did not inhibit	IC50 at 15 min [3]: 150 µM
CC(=O)Nc1ccc(OS(=O)(=O)O)cc1 [Acetaminophen sulfate]	21.2 (± 2.1) µg ml^–1 h	20.1 (± 2.3) µg ml^–1 h	–	–	0.52*	0.51	0.52*	0.47	0.84*	0.8	0.81	0.72	0.71*	0.7	0.65*	0.6	–	Cmax ([1]; Day 1, acetaminophen 650 mg oral alone (control), mean (± SE), n = 28): 4.8 (± 0.4) µg ml^–1; tmax ([1]; Day 1, acetaminophen 650 mg oral alone (control), n = 28): 1.00 (± 0.33) h; Truncated AUC [1, 8]: 22.4 (± 1.7) µg ml^–1 h; t½ [1, 8]: 3.4 (± 0.1) h; Truncated AUC [1, 5]: 16.0 (± 1.3) µg ml^–1 h; t½ [1, 5]: 5.5 (± 0.6) h; tmax ([1]; Day 2, acetaminophen 650 mg oral + acute favipiravir, n = 28): 1.51 (± 0.1) h; Truncated AUC [1, 6]: 14.6 (± 1.6) µg ml^–1 h; t½ [1, 6]: 5.3 (± 0.4) h; tmax ([1]; Day 6, acetaminophen 650 mg oral + extended favipiravir, n = 28): 1.27 (± 0.09) h; Projected total urinary excretion ([4]; Day 1, acetaminophen 650 mg alone (control), mean (± SE), n = 28): 22 (± 2) % of dose
CC(=O)Nc1ccc(O)cc1 [Acetaminophen, reference compound]	39.3 (± 3.1) µg ml^–1 h	37.4 (± 2.5) µg ml^–1 h	2.8 h	3 h	1.07	1.03	1.17	1.08	1.20*	1.17	1.19*	1.14	1.19*	1.17	1.19*	1.14	–	Effect of favipiravir co-administration on Cmax ([1]; acute (day 2) and extended (day 6) favipiravir vs day 1): not significantly changed; also recorded: no significant effect; Dose excreted in urine as intact acetaminophen ([4]; on average): less than 10 % of the dose
